{"source": "patent US20210100740A1", "about": "“BIO-ADHESIVE DISSOLVING COMPOUNDS AND DEVICE” (Segal Innovations LLC, priority 2019, published 2021)", "origin": "cited, not measured here", "data": [{"smiles": "CO[C@@]12[C@H](COC(N)=O)C3=C(C(=O)C(C)=C(N)C3=O)N1C[C@@H]1N[C@@H]12", "note": "[mitomycin]", "values": [{"measurement": "degradation in acidic solutions and when exposed to light", "setting": "acidic solutions with a pH of less than 6, exposed to light", "result": "rapid degradation"}, {"measurement": "how long mitomycin lasts", "setting": "refrigerated between 2° C. and 8° C. without being exposed to light", "result": "up to one week"}]}]}
